Series [1] has as its system Human colon adenocarcinoma xenografts (T84 cells). As to the kind of experiment: MicroPET imaging in ectopic mouse model of human colon adenocarcinoma, baseline and blocking. It counts as in vivo, mice.
Method: Human colon adenocarcinoma xenografts were established by subcutaneous injections of 1×10^6 T84 cells into 6-week-old male Swiss nude mice (Charles River) under 2% isoflurane anesthesia.
PET images were acquired 1 h after IV injection on a Mediso NanoPET/CT under 2% isoflurane anesthesia.
A further series deals with Matrigel plug. The series can be described thus: MicroPET imaging in Matrigel mouse model. Type of series: in vivo, mice. As to the method:
These mice were also subcutaneously implanted with Matrigel (Dutscher) supplemented with 10% fetal bovine serum under 2% isoflurane anesthesia.
(§1) On hindlimb ischemia mouse model (n=8) and Matrigel mouse model (n=7) on day 1, 3, 7, 10, 13 and 21 post-surgery, mice were IV injected with 5-10 MBq of ^68Ga-NODAGA-Apelin13(F13A) under 2% isoflurane anesthesia.
(§2) PET images were acquired 60 min after IV injection on a Mediso Nanoscan PET/CT under 2% isoflurane anesthesia. On hindlimb ischemia mouse model and on day 1, 3, 7, 10, 13 and 21 post-surgery, mice were IV injected with 5-10 MBq of [^68Ga]Ga-NODAGA-RGD2 injection under 2% isoflurane anesthesia. PET images were acquired 60 min after IV injection on a Mediso Nanoscan PET/CT under 2% isoflurane anesthesia.
(§3) Quantitative region-of-interest (ROI) analysis of the PET images was performed on attenuation- and decay-corrected PET images using InVicro—VivoQuant software and tissue uptake values are presented as an ischemic muscle to contralateral muscle ratio and as a percentage of the injected dose per gram of tissue (% ID/g) which was determined by decay correction for each sample normalized to a standard of known weight, which was representative of the injected dose.

The test system of a further series is ischemic limb. As to the kind of experiment: MicroPET imaging in mouse model of hindlimb ischemia. It counts as in vivo, mice. As to the method: Unilateral hindlimb ischemia was performed on 9-week-old male Swiss mice (Janvier Labs) after femoral artery excision under 2% isoflurane anesthesia. LASER Doppler perfusion imaging (Perimed, Craponne, France) was used to assess revascularization from day 0 to day 21 after surgery. Perfusion results are expressed as a ratio of ischemic to non-ischemic limb blood flow. Hindlimb ischemic damage was quantified on Days 1, 3, 7, 10, 13 and 21.
as §1, §2, §3

Series [2] is described as follows: MicroPET biodistribution study in healthy mice. Type of series: in vivo. The settings on record: IV injection, up to 2 h. How it is done: For biodistribution study in healthy mice (n=3), images were continuously acquired just after ^68Ga-NODAGA-Apelin13(F13A) IV injection with 5-6 MBq and recorded up to 2 h post injection on a Mediso NanoPET/CT under 2% isoflurane anesthesia.
as §3

Series [3] in a line: Stability of radiolabelled tracer in human serum. It counts as in vitro ADME. How it is done: Determination of radiochemical purity was done by radio-thin-layer chromatography (ITLC-SG) and was performed using a Ray-test miniGITA radio-TLC scanner detector (Straubenhardt, Ge) (eluents, 1:1 [v/v] mixture of 1M aqueous ammonium acetate solution and methanol and also in Trisodium Citrate 0,1M). Evaluation of ^68Ga-NODAGA-Apelin13(F13A) stability was performed in human serum at 60 and 120 min after radiosynthesis.

A further series concerns the target T1, APJ receptor, T84 cells (Homo sapiens, UniProt P35414).
T1 construct: host or cells: T84 human colon adenocarcinoma cells
T1 sequence (P35414 1-380): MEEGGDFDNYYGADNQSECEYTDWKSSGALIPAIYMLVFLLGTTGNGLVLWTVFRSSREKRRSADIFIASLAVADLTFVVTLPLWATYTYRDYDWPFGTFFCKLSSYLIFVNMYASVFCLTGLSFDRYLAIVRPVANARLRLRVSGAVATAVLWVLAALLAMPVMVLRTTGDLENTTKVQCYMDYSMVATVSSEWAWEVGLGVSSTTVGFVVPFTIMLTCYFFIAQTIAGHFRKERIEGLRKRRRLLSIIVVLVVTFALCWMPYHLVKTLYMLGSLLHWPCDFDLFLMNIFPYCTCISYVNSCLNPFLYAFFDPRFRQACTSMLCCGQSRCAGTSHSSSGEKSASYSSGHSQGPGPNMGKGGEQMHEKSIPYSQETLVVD
As to the kind of experiment: In vitro internalization study in T84 cells. It counts as cell-based. How it is done:
(§4) T84 cells were cultured as described in saturation binding experiments above.
Three minutes before the end of the incubation time, internalization was stopped on ice and the supernatant was removed. Internalization was then stopped by eliminating the supernatant and each well was washed with 3×250 μL of ice-cold PBS. The membrane-bound fraction was retrieved in 2×250 μL sodium acetate buffer (20 mM, pH 5) for 5 min. Finally, cells were treated with 500 μL of NaOH (1 M). The radioactivity of the membrane-bound fraction and the internalized fraction was measured in a gamma counter. The experiment was performed twice. To also verify receptor specificity, blocking experiments were performed by using 1 μM of apelin-13.

The next series concerns T84 cells. As to the kind of experiment: In vitro efflux study on T84 cells. It counts as cell-based, human. As to the method:
as §4
Three minutes before the end of the incubation time, internalization was stopped on ice and the supernatant was removed. Each well was washed with 1 mL of ice-cold PBS. The membrane-bound fraction was retrieved in 2 mL sodium acetate buffer (20 mM, pH 5) for 2 min, each well was rinsed a second time with 1 mL ice-cold PBS and fresh culture medium was added. At each time point (10, 30, 60 and 120 minutes), the efflux was stopped by collecting the medium and washing cells twice with ice-cold PBS. Finally, cells were treated with NaOH (1 M). The radioactivity of the collected culture medium supernatant, the PBS wash fractions, and the total internalized fraction was measured in a gamma counter. The experiment was performed twice.

A short description of series [4]: Hydrophilicity, water-octanol partition/distribution coefficient method. It counts as physicochemical. The note with it: 1-octanol / phosphate-buffered saline pH 7.4. As to the method: Hydrophilicity of [^67Ga]Ga-AP747 was assessed by the water-octanol partition/distribution coefficient method. In a centrifuge tube, 500 μL of 1-octanol was added to 500 μL of phosphate-buffered saline (pH 7.4) containing the radiolabeled peptide (50 kBq). After equilibrium, the solution was vigorously stirred for 5 min at room temperature and subsequently centrifuged (4000 rpm, 5 min) to yield two immiscible layers. Aliquots of 100 μL were taken from each layer and the radioactivity in the samples was determined by a gamma counter (Perkin Elmer, Waltham, Mass., USA).

In another series the target is T2, APJ (Homo sapiens, UniProt P35414).
T2 construct: host or cells: T84 human colon adenocarcinoma cells
T2 sequence (P35414 1-380): T1 sequence (P35414 1-380)
As to the kind of experiment: Autoradiography with blocking strategy on T84 cells. It counts as cell-based. The note with it: 100-fold excess of unconjugated Apelin13(F13A). How it is done:
A blocking strategy was performed on cells expressing the highest level of APJ. This strategy consists in adding a large excess (100-fold) of unconjugated peptide (Apelin13(F13A)) before adding inventors' product of interest. Unspecific tracer was eliminated by several washes. The remaining activity, considered as specifically bound to the target, was evaluated by autoradiography.
T84 cell line (EuroBioDev) was cultivated in DMEM-F12/Glutamax medium complemented with 10% fetal bovine serum decomplemented and 1% antimycotic-antibiotic mix. Cell lines were maintained in a humidified 5% CO2 incubator at 37° C.

[5] abbreviates: PET signal ratio on day 7, corrected with non-ischemic limb.

On to `CSCC[C@H](NC(=O)[C@@H]1CCCN1C(=O)CNC(=O)[C@H](CCCCN)NC(=O)[C@H](Cc1c[nH]cn1)NC(=O)[C@H](CO)NC(=O)[C@H](CC(C)C)NC(=O)[C@H](CCCNC(=N)N)NC(=O)[C@@H]1CCCN1C(=O)[C@H](CCCNC(=N)N)NC(=O)[C@@H](N)CCC(N)=O)C(=O)N1CCC[C@H]1C(=O)N[C@@H](C)C(=O)O` [Apelin13(F13A), reference compound], for which the “tolerance of cold peptide in in vivo blocking experiments” value in series [1] (due to cardiovascular effects of Apelin) was “bad tolerance”.
As for “[^68Ga]Ga-NODAGA-Apelin13(F13A): Apelin-13(F13A) peptide (SEQ ID NO: 5) conjugated to chelator NODAGA and radiolabelled with gallium-68; PET tracer of APJ”, the “PET signal in Matrigel compared with [68Ga]Ga-NODAGA-RGD2, globally over experiment period” value with Matrigel plug (day 1 to day 21) was “significantly superior”. For the same molecule, the “accumulation in Matrigel plug compared with [68Ga]Ga-NODAGA-RGD2” value with Matrigel plug (day 10, day 13 and day 21, PET 60 min after IV injection) was “significantly higher”. The “relation of PET signal in ischemic limb to day-input function (LASER Doppler Day7/Day0)” value with ischemic limb (PET signal on day 7, corrected with non-ischemic limb) is on record as “not linked”. In addition, in the series on ischemic limb (setting [5]), the “correlation of PET signal in ischemic limb with LASER-Doppler signal at day of surgery” value is given as “significantly negatively correlated” and the “relation of PET signal in ischemic limb to reperfusion (LASER-Doppler Day 21/Day 0)” value is “more important when reperfusion is longer”. In addition, in the series with ischemic limb (at peak), the “PET signal in ischemic limb compared with [68Ga]Ga-NODAGA-RGD2” value is recorded as “notably better”. Besides, in the series with ischemic limb (ischemic limb corrected by non-ischemic limb, post-surgery), the “day of peak PET signal in ischemic limb” value worked out at 7 days. In addition, in series [1] (pre-saturation with cold Apelin13(F13A), angiogenic and tumoral models), the “partial blocking of PET signal in in vivo blocking experiments” value is on record as “about 50%”. In addition, the “excretion and organ accumulation (PET signal quantification in organs)” value in series [2] (n=3) was “fast and mainly urinary excretion without noticeable accumulation in liver, lungs or brain”. Further, the “excretion and organ accumulation (PET signal quantification in organs)” value in series [2] (n=3, listed as (F13A)Apelin-NODAGA-^68Ga) is “Rapid urinary and hepatic elimination”. The “radiochemical purity after incubation in human serum” value in series [3] (human serum, until two hours post-incubation, n=3) is recorded as “didn't lead to significant tampering”. Besides, the stability in serum entry in series [3] (serum) is reported as “up to 2 hours”.
For “[^67Ga]Ga-AP747: NODAGA-Apelin13(F13A) radiolabelled with gallium-67, used for in vitro binding, internalization and efflux studies”, the “internalized fraction of the cell associated radioactivity (maximum)” value with APJ receptor, T84 cells (37° C., at 60 min) is recorded as 79.7±7.3%. Moreover, the “receptor specific membrane-bound fraction” value with APJ receptor, T84 cells (at any time point (10, 30, 60 min)) is given as below 5%. Besides, the “efflux: fraction of the total binding externalized” value with T84 cells (10 minutes post-internalization) is given as 66.7±1.7%; in the series on T84 cells (at 2 h) it was 81.2±2.9%. Further, the “log D7.4” value in series [4] is −3.03±0.02.
For the molecule “AP747: AP747 corresponds to NODAGA-Apelin13(F13A); used radiolabelled in the autoradiography”, the “remaining activity recorded by autoradiography in blocking condition compared to classic conditions” value with APJ was “significantly reduced”.

Values taken from patent US20230226231A1, “CONJUGATED AND LABELLED APELIN, PREPARATION AND USES THEREOF” (UNIVERSITE D'AIX MARSEILLE, priority 2020, published 2023).
